The values that follow come from US7713971B2, “1,2,4-triazine derivatives, preparation and use thereof in human therapy” (Pierre Fabre Medicament, priority 2005, dated 2010).

One may read the EC50 as the concentration that produces a half-maximal response.

Each structure is given as a SMILES string. Read-outs that look alike come from different tables or passages of the source. A value given as a limit tells only on which side of the number the result lay.

Experiment [1] has as its target T1, human PPARδ (Homo sapiens, UniProt Q03181).
T1 construct: expressed in transfected cells; host or cells: Cos-7 cells (ATCC, CRL-1651)
T1 sequence (Q03181 211-439 limits assumed): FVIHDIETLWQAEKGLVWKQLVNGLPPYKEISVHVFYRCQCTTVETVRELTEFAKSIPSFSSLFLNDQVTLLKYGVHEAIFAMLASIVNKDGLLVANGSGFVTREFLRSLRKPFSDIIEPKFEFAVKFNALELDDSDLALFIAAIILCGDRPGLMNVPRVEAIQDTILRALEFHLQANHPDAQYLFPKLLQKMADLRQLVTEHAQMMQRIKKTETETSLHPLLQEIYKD
Description: Reporter gene transactivation, hPPAR-GAL4 delta. It counts as cell-based. As to conditions: transfected Cos-7 cells, Gal-4 luciferase reporter, 24 hours treatment.

Experiment [2] deals with T2, human PPARα (Homo sapiens, UniProt Q07869).
T2 construct: expressed in transfected cells; host or cells: Cos-7 cells (ATCC, CRL-1651)
T2 sequence (Q07869 239-466 limits assumed): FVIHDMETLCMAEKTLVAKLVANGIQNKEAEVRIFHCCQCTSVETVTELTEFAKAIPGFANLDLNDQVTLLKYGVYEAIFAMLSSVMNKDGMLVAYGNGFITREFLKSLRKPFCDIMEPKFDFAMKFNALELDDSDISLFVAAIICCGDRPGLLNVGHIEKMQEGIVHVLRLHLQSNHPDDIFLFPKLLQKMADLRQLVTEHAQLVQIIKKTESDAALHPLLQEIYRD
The experiment in a line: Reporter gene transactivation, hPPAR-GAL4 alpha. As to conditions: transfected Cos-7 cells, Gal-4 luciferase reporter, 24 hours treatment. It counts as cell-based. For orientation: A reporter such as luciferase makes a cellular process visible.

Experiment [3] concerns insulin-resistant male rat (Ico: ZUCKER-fa/fa). Description: Normalization of metabolic parameters (cholesterol, plasma triglycerides) in insulin-resistant rat. It counts as in vivo. As to conditions: oral route, once per day for four days, Zucker fa/fa rat unfed 16-18 hours; for change in vivo at 10 mg/kg / change in vivo at 2.5 mg/kg: 96 h. The procedure: Normalization of metabolic parameters (cholesterol, plasma triglycerides) in an insulin-resistant male rat (Ico: ZUCKER-fa/fa), unfed for 16-18 hours, after treatment by oral route, once per day for four days, with the compounds to be evaluated or their administration vehicle.
These metabolic parameters are measured by spectrophotometry at the beginning and the end of each animal's treatment.

The target of experiment [4] is T3, human PPARγ (Homo sapiens, UniProt P37231).
T3 construct: expressed in transfected cells; host or cells: Cos-7 cells (ATCC, CRL-1651)
T3 sequence (P37231 238-503 limits assumed): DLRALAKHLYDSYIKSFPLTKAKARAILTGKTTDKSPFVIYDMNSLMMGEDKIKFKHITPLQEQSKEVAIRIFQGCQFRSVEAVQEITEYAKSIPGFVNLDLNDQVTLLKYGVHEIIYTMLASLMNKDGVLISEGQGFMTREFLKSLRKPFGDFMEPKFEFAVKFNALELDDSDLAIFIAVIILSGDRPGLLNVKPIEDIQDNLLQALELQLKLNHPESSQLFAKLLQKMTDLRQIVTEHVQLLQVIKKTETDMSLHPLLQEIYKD
Description: Reporter gene transactivation, hPPAR-GAL4 gamma. As to conditions: transfected Cos-7 cells, Gal-4 luciferase reporter, 24 hours treatment. It counts as cell-based.

Setting [5] is: at 10 mg/kg, read-out: Plasma cholesterol.
Where [6] appears, read: at 10 mg/kg, read-out: Plasma triglycerides.
Where [7] appears, read: at 2.5 mg/kg, read-out: Plasma cholesterol.

Regarding `CCCCCCCN(CCc1ccc(OC(C)(C)C(=O)OCC)cc1)c1nn(C)c(=O)n(C)c1=O` [Example 112, Ethyl 2-(4-{2-[(2,4-dimethyl-3,5-dioxo-2,3,4,5-tetrahydro-[1,2,4]triazin-6-yl)-heptyl-amino]-ethyl}-phenoxy)-2-methyl-propionate], the EC50 is 1 to 3 µM in experiment [1], 1000 to 3000 nM in experiment [2] and about 10 µM in experiment [4]. For the same compound, the change in vivo at 10 mg/kg in experiment [3] (setting [5]) was -43%; in experiment [3] (setting [6]) it was -31%.
Take `CCOC(=O)C(C)(C)Oc1cccc(CCCCNc2nn(CCCC(F)(F)F)c(=O)n(CCCC(F)(F)F)c2=O)c1` [Example 80, Ethyl 2-(3-{4-[3,5-dioxo-2,4-bis-(4,4,4-trifluoro-butyl)-2,3,4,5-tetrahydro-[1,2,4]triazin-6-ylamino]-butyl}-phenoxy)-2-methyl-propionate]: the EC50 is over 10 µM in experiment [1], 10 to 30 nM in experiment [2] and 0.3 to 1 µM in experiment [4]. The change in vivo at 10 mg/kg in experiment [3] (setting [5]) was -16%. The Plasma triglycerides result in experiment [3] (at 10 mg/kg) was “inactive at 10”.
As for `CCCCn1nc(OCCCCCc2cccc(OC(C)(C)C(=O)OCC)c2)c(=O)n(CCCC)c1=O` [Example 13, Ethyl 2-{3-[5-(2,4-dibutyl-3,5-dioxo-2,3,4,5-tetrahydro-[1,2,4]triazin-6-yloxy)-pentyl]-phenoxy}-2-methyl-propionate], the EC50 is about 3 µM in experiment [1], 10 to 30 nM in experiment [2] and 0.1 to 0.3 µM in experiment [4]. The change in vivo at 2.5 mg/kg in experiment [3] (setting [7]) was -8%. For the same compound, the change in vivo at 10 mg/kg was -12% in experiment [3] (setting [5]) and -28% in experiment [3] (setting [6]). Moreover, the Plasma triglycerides entry in experiment [3] (at 2.5 mg/kg) was “inactive at 2.5”.
With `Cn1nc(NCCCCc2cccc(SC(C)(C)C(=O)O)c2)c(=O)n(CCCC(F)(F)F)c1=O` [Example 96, 2-Methyl-2-(3-{4-[2-methyl-3,5-dioxo-4-(4,4,4-trifluoro-butyl)-2,3,4,5-tetrahydro-[1,2,4]triazin-6-ylamino]-butyl}-phenylsulfanyl)-propionic Acid], the EC50 in experiment [1] was over 10 µM; in experiment [2], 30 to 100 nM; in experiment [4], about 10 µM. Also, the change in vivo at 2.5 mg/kg was -28% in experiment [3] (setting [7]) and -26% in experiment [3] (at 2.5 mg/kg, read-out: Plasma triglycerides). Also, the figures for the change in vivo at 10 mg/kg in experiment [3] (setting [5]) and in experiment [3] (setting [6]) were -21% and -60%, respectively.
Take `CCOC(=O)C(C)(C)Oc1cccc(CCCCNc2nn(CCCC(F)(F)F)c(=O)n(CC=C(C)C)c2=O)c1` [Example 76, Ethyl 2-methyl-2-(3-{4-[4-(3-methyl-but-2-enyl)-3,5-dioxo-2-(4,4,4-trifluoro-butyl)-2,3,4,5-tetrahydro-[1,2,4]triazin-6-ylamino]-butyl}-phenoxy)-propionate]: the EC50 in experiment [1] lay in the range of 3 to 10 µM; in experiment [2] it was 10 to 30 nM; in experiment [4] it was 1 to 3 µM. Further, the change in vivo at 2.5 mg/kg in experiment [3] (setting [7]) is -16%. The change in vivo at 10 mg/kg was -22% in experiment [3] (setting [5]) and -7% in experiment [3] (setting [6]).
`CCOC(=O)C(C)(C)Oc1cccc(CCCNc2nn(CCCC(F)(F)F)c(=O)n(CCCC(F)(F)F)c2=O)c1` [Example 66, Ethyl 2-(3-{3-[3,5-dioxo-2,4-bis-(4,4,4-trifluoro-butyl)-2,3,4,5-tetrahydro-[1,2,4]triazin-6-ylamino]-propyl}-phenoxy)-2-methyl-propionate]: the EC50 was about 10 µM in experiment [1], 30 to 100 nM in experiment [2] and over 10 µM in experiment [4]. Moreover, in experiment [3] (setting [5]), the change in vivo at 10 mg/kg was -9%. The Plasma triglycerides result in experiment [3] (at 10 mg/kg) was “inactive at 10”.
Take `CCCCCCCn1c(=O)c(OCCCCc2ccc(OC(C)(C)C(=O)OCC)cc2)nn(CCCC(F)(F)F)c1=O` [Example 31, Ethyl 2-(4-{4-[4-heptyl-3,5-dioxo-2-(4,4,4-trifluoro-butyl)-2,3,4,5-tetrahydro-[1,2,4]triazin-6-yloxy]-butyl}-phenoxy)-2-methyl-propionate]: the results for the EC50 in experiment [1], in experiment [2] and in experiment [4] were 3 to 10 µM, about 100 nM and about 1 µM, respectively.
Regarding `CCOC(=O)C(C)(C)Oc1ccc(OCCNc2nn(CCCC(F)(F)F)c(=O)n(CCCC(F)(F)F)c2=O)cc1` [Example 41, Ethyl 2-(4-{2-[3,5-dioxo-2,4-bis-(4,4,4-trifluoro-butyl)-2,3,4,5-tetrahydro-[1,2,4]triazin-6-ylamino]-ethoxy}-phenoxy)-2-methyl-propionate], the EC50 in experiment [1] is 1 to 3 µM; in experiment [2], about 100 nM; in experiment [4] it was about 10 µM. Moreover, the change in vivo at 10 mg/kg in experiment [3] (setting [5]) is -28%. Moreover, the Plasma triglycerides entry in experiment [3] (at 10 mg/kg) was “inactive at 10”.
Turning to `CCCCCCCN(CCc1ccc(OC(C)(C)C(=O)O)cc1)c1nn(C)c(=O)n(C)c1=O` [Example 113, 2-(4-{2-[(2,4-Dimethyl-3,5-dioxo-2,3,4,5-tetrahydro-[1,2,4]triazin-6-yl)-heptyl-amino]-ethyl}-phenoxy)-2-methyl-propionic Acid], the EC50 fell in the range of 0.3 to 1 µM in experiment [1], 300 to 1000 nM in experiment [2] and 3 to 10 µM in experiment [4]. Moreover, the change in vivo at 2.5 mg/kg in experiment [3] (setting [7]) is -30%. The change in vivo at 10 mg/kg is -40% in experiment [3] (setting [5]) and -26% in experiment [3] (setting [6]). Besides, the Plasma triglycerides entry in experiment [3] (at 2.5 mg/kg) was “inactive at 2.5”.
With `CCCCCCCn1nc(NCCOc2ccc(OC(C)(C)C(=O)OCC)cc2)c(=O)n(CCCCCCC)c1=O` [Example 42, Ethyl 2-{4-[2-(2,4-diheptyl-3,5-dioxo-2,3,4,5-tetrahydro-[1,2,4]triazin-6-ylamino)-ethoxy]-phenoxy}-2-methyl-propionate], the EC50 was 1 to 3 µM in experiment [1], about 1000 nM in experiment [2] and over 10 µM in experiment [4].
On to `CCOC(=O)C(C)(C)Oc1ccc(OCCCOc2nn(CCCC(F)(F)F)c(=O)n(CCCC(F)(F)F)c2=O)cc1` [Example 39, Ethyl 2-(4-{3-[3,5-dioxo-2,4-bis-(4,4,4-trifluoro-butyl)-2,3,4,5-tetrahydro-[1,2,4]triazin-6-yloxy]-propoxy}-phenoxy)-2-methyl-propionate], for which the values for the EC50 in experiment [1], in experiment [2] and in experiment [4] were about 3 µM, 100 to 300 nM and 3 to 10 µM, respectively.
Regarding `CCOC(=O)C(C)(C)Oc1cccc(OCCCOc2nn(CCCC(F)(F)F)c(=O)n(CCCC(F)(F)F)c2=O)c1` [Example 35, Ethyl 2-(3-{3-[3,5-dioxo-2,4-bis-(4,4,4-trifluoro-butyl)-2,3,4,5-tetrahydro-[1,2,4]triazin-6-yloxy]-propoxy}-phenoxy)-2-methyl-propionate], the 50% effective concentration (EC50) in experiment [1] was about 10 µM; in experiment [2] it was 30 to 100 nM; in experiment [4] it was 3 to 10 µM.
Regarding `CCCCCCCn1nc(NCCCCc2cccc(OC(C)(C)C(=O)O)c2)c(=O)n(CCCC(F)(F)F)c1=O` [Example 84, 2-(3-{4-[2-Heptyl-3,5-dioxo-4-(4,4,4-trifluoro-butyl)-2,3,4,5-tetrahydro-[1,2,4]triazin-6-ylamino]-butyl}-phenoxy)-2-methyl-propionic Acid], the EC50 is 1 to 3 µM in experiment [1], 3 to 10 nM in experiment [2] and about 0.3 µM in experiment [4]. Moreover, the change in vivo at 10 mg/kg was -13% in experiment [3] (setting [5]) and -7% in experiment [3] (setting [6]). The Plasma cholesterol entry in experiment [3] (at 2.5 mg/kg) is “inactive at 2.5”. In experiment [3] (at 2.5 mg/kg), the Plasma triglycerides result was “inactive at 2.5”.
Regarding `CCCCCCCn1nc(NCCOc2ccc(OC(C)(C)C(=O)OCC)cc2)c(=O)n(C)c1=O` [Example 40, Ethyl 2-{4-[2-(2-heptyl-4-methyl-3,5-dioxo-2,3,4,5-tetrahydro-[1,2,4]triazin-6-ylamino)-ethoxy]-phenoxy}-2-methyl-propionate], the concentration giving a half-maximal response (EC50) is over 10 µM in experiment [1], 3000 to 10000 nM in experiment [2] and about 10 µM in experiment [4].
